Source: publication PMC9027957, “Interspecies Comparisons of the Effects of Potential Antiviral 3-Amidinophenylalanine Derivatives on Cytochrome P450 1A2 Isoenzyme” (Veterinary Sciences, 2022)

Key:
Type in all cases: in vitro ADME
[1] = 60 min microsomal stability assay (UPLC-MS/MS), cynomolgus monkey liver microsomes; conditions: 50 µM
Description: (§1) Rat, beagle (Gibco, Biocenter, Szeged, Hungary), and cynomolgus monkey (Primacyt, Schwerin, Germany) liver microsomes were exposed to inhibitors MI-432, MI-463, MI-482, or MI-1900 at 50 µM for 60 min. The final microsomal protein concentration in the suspension was 0.6 mg/mL in each case. The reaction buffer (100 mM phosphate buffer pH 7.4) also contained 1 mM nicotinamide adenine dinucleotide phosphate (NADPH), 5 mM MgCl2, 10 mM glucose-6-phosphate (G6P), and 2 IU/mL glucose-6-phosphate dehydrogenase (G6PD). The reaction was terminated by the addition of ice-cold acetonitrile (ACN) with the ratio of sample ACN volume = 1:2. The precipitated protein was removed by centrifugation at 10,000× g for 10 min, and the supernatants were used for subsequent analyses.
(§2) The determination of all analytes was carried out using an UPLC/MS/MS system, which consisted of an HPLC apparatus (SCIEX ExionLC^TM UPLC, Framigham, MA, USA) and a SCIEX Qtrap 4500 triple-quadrupole mass spectrometer (Framigham, MA, USA) equipped with a SCIEX Turbo V electrospray ionization source. The HPLC columns used were LiChrospher RP Select B (125 × 4.0 mm, 5.0 μm, C8 stationary phase). Next, 0.1% trifluoroacetic acid in ultra-purified water (A) and acetonitrile (B) were used as mobile phases for chromatographic separations applying a gradient elution. The HPLC gradient program was the following: between 0 and 10 min, a ratio of 70% A and 30% B; from 10 to 20 min, linearly increasing to a ratio of 50% A and 50% B; from 20 to 21 min, maintained at a ratio of 50% A and 50% B; from 21 to 22 min, linearly decreasing back to a ratio of 70% A and 30% B; and between 22 min and 30 min, maintained at a ratio of 70% A and 30% B. The run time was 30 min, the column temperature was adjusted to 35 °C, and the flow rate was 1 mL/min.

[2] = 60 min microsomal stability assay (UPLC-MS/MS), rat liver microsomes; conditions: 50 µM
Description: as §1, §2

[3] = biological target: T1, CYP1A2 (Macaca fascicularis, UniProt O77809); test: CYP1A2 fluorometric activity assay in cynomolgus monkey hepatic microsomes; set-up: cynomolgus monkey microsomal suspension (Primacyt, Schwerin, Germany, protein concentration: 5 mg/mL); tissue Primacyt, Schwerin, Germany; host or cells: liver (hepatic microsomes)
T1 sequence (O77809 1-516): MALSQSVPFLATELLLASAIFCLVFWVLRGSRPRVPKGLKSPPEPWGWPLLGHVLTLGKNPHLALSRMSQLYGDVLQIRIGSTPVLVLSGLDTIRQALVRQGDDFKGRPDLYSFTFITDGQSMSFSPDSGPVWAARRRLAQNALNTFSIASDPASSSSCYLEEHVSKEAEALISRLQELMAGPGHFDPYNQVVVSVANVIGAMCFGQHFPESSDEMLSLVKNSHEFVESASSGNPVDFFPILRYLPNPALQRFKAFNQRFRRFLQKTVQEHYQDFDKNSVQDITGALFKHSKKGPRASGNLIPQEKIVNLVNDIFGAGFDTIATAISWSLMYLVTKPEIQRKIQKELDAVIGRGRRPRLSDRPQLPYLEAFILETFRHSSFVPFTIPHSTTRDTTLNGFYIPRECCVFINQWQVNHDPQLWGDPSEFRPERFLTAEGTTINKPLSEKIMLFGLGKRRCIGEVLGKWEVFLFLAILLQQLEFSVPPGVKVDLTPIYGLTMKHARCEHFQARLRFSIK
Description: The Biovision CYP assay (BioVision, Inc., Kampenhout, Belgium) utilizes a non-fluorescent CYP1A2 substrate capable of transforming into a highly fluorescent metabolite, which can be detected in the visible range. α-naphthoflavone was used as a CYP1A2 reference inhibitor at 6 µM during the experiments. Rat (Sprague–Dawley) and beagle (Gibco, Biocenter, Szeged, Hungary, protein concentration: 20 mg/mL) hepatic microsomal preparations were prepared separately by mixing 25 µL of the obtained rat or beagle microsomal suspension with 2425 µL assay buffer and with 50 µL NADPH generating system (100×). In the case of the cynomolgus monkey microsomal suspension (Primacyt, Schwerin, Germany, protein concentration: 5 mg/mL), the following volumes were applied: in addition to 100 µL of monkey microsomal suspension, the amount of assay buffer and the NADPH generating system were adjusted in order to ensure the original ratios of these components to reach a final volume of 2500 µL. Rat, beagle, and cynomolgus monkey microsomal suspension aliquots (50 µL) were treated with the protease inhibitor 20 µL, 0–1000 µM), the reference compound α-naphthoflavone (20 µL, 30 µM), or the assay buffer without test compounds (20 µL, background control) for 15 min at 37 °C. After incubation, 30 µL of the appropriate CYP1A2 substrate/NADP+ mixture was added to each well, yielding a final reaction volume of 100 µL/well. The protein contents of the obtained microsomes were analysed using bicinchoninic acid protein assay kit (Pierce BCA kit, Thermo Fisher Scientific, Waltham, MA, USA). […] The fluorescence intensities were measured with a fluorometer (Victor X2 2030, Perkin Elmer, Waltham, MA, USA), using λEx/Em = 406/468 nm.

N=C(N)c1cccc(C[C@H](NS(=O)(=O)c2cccc(-c3ccc(Cl)cc3Cl)c2)C(=O)N2CCC(CCN)CC2)c1 [MI-432]
depletion percentage of the parent compound ([1]; cynomolgus monkey, pH 7.4): 19.6 ± 5.8% | depletion percentage of the parent compound ([2]; Sprague-Dawley, rat, pH 7.4): 28 ± 3.1% | IC50 [3]: 1300 ± 140 nM | CYP1A2 in the cynomolgus monkey microsomal model ([3]; microsomes): inhibited

COc1ccc(-c2cccc(S(=O)(=O)N[C@@H](Cc3cccc(C(=N)N)c3)C(=O)N3CCN(C(=O)NC4CCCCC4)CC3)c2)c(OC)c1 [MI-1900]
depletion percentage of the parent compound ([1]; monkey microsomes, 0.6 mg/mL protein, mean ± SD (n = 3)): 26.7 ± 10.8% | depletion percentage of the parent compound ([2]; rat microsomes, 0.6 mg/mL protein, mean ± SD (n = 3)): 30.7 ± 11.7% | IC50 [3]: 1100 ± 800 nM | CYP1A2 in the cynomolgus monkey microsomal model ([3]; inhibitors at 50 µM): inhibited
